Results on four compounds are retold here after ChEMBL document CHEMBL1128724, “Unsaturated acyclic analogues of 2'-deoxyadenosine and thymidine containing fluorine: synthesis and biological activity” (J Med Chem, 1995).

For one test, the system named is L1210. As to the kind of experiment: Growth inhibition of murine leukemia L1210 cells. The class given is functional, cell-based. The following applies: Mus musculus.
Test [1] concerns ATH-8 cell line. Kind of test: Inhibitory activity against HIV-1 in ATH8 cells. The class given is functional, cell-based. Conditions: Homo sapiens; call rule not given here.
The test system of test [2] is ATH-8 cell line. Kind of test: Inhibitory activity against HIV-1 in ATH8 cells; IA means Inactive. The class given is functional, cell-based, Homo sapiens.

The term IC50 denotes the concentration needed to halve the response being measured.

The compound `Nc1ncnc2c1ncn2C(F)C#CCO` (centres undefined) registered an IC50 in the test on L1210 of 89 µM.

Compound `Cc1cn(C/C=C(/F)CO)c(=O)[nH]c1=O` displayed an IC50 in the test with L1210 of 60 µM.

`Nc1ncnc2c1ncn2C/C=C(/F)CO` yielded an IC50 in the test with ATH-8 cell line [1] of 100 µM.

Regarding `Nc1ncnc2c1ncn2C/C=C(\F)CO`, the concentration for half-maximal inhibition (IC50) entry in the test on ATH-8 cell line [2] was “Not Active”.
